From ChEMBL document CHEMBL1201862, “PubChem BioAssay data set” (2004)
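Method: 48-hour compound exposure of cells in 96-well plates, five concentrations, linear interpolation of endpoints. The concentration for 50% growth inhibition is given as GI50.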 Calls of active or inactive are those of the source. Cut-off read from the data, not from the text of the source: active = GI50 up to about 1.1 µM and inactive = higher.

Tests used:
Experiment in all cases: NCI anticancer screen, dose series, 48 h
[1] = tested on: HCT-116
[2] = tested on: HL-60
[3] = tested on: KM12
[4] = tested on: PC-3
[5] = tested on: U-251
[6] = tested on: BT-549
[7] = tested on: SNB-75
[8] = tested on: LOX IMVI
[9] = tested on: CCRF-CEM
[10] = tested on: SF-295
[11] = tested on: OVCAR-3
[12] = tested on: MDA-MB-435
[13] = tested on: RXF 393
[14] = tested on: TK-10
[15] = tested on: IGROV-1
[16] = tested on: MDA-MB-231
[17] = tested on: M14
[18] = tested on: UACC-62
[19] = tested on: HOP-92
[20] = tested on: EKVX
[21] = tested on: ACHN
[22] = tested on: NCI-H226
[23] = tested on: MCF7
[24] = tested on: NCI/ADR-RES
[25] = tested on: SK-OV-3
[26] = tested on: DU-145
[27] = tested on: NCI-H23
[28] = tested on: SN12C
[29] = tested on: RPMI-8226
[30] = tested on: 786-0
[31] = tested on: SK-MEL-28
[32] = tested on: OVCAR-4
[33] = tested on: UACC-257
[34] = tested on: HT-29
[35] = tested on: UO-31
[36] = tested on: MDA-N
[37] = tested on: SK-MEL-2
[38] = tested on: SF-268
[39] = tested on: HCC 2998
[40] = tested on: SNB-19
[41] = tested on: MOLT-4
[42] = tested on: OVCAR-8
[43] = tested on: SF-539
[44] = tested on: Malme-3M
[45] = tested on: HCT-15
[46] = tested on: NCI-H460
[47] = tested on: T47D
[48] = tested on: HOP-62
[49] = tested on: K562
[50] = tested on: SK-MEL-5
[51] = tested on: OVCAR-5
[52] = tested on: COLO 205
[53] = tested on: SR
[54] = tested on: A549
[55] = tested on: Hs-578T
[56] = tested on: SW-620
[57] = tested on: CAKI-1
[58] = tested on: NCI-H522

Compound: CCOC(=O)C(NC(=O)c1ccccc1)(Nc1ccc(S(=O)(=O)Nc2ncccn2)cc1)C(F)(F)F (stereo unspecified)
- GI50 [1]: > 100 µM (inactive)
- GI50 [2]: > 100 µM (inactive)
- GI50 [3]: > 100 µM (inactive)
- GI50 [4]: > 100 µM (inactive)
- GI50 [5]: > 100 µM (inactive)
- GI50 [6]: > 100 µM (inactive)
- GI50 [7]: > 100 µM (inactive)
- GI50 [8]: > 100 µM (inactive)
- GI50 [9]: > 100 µM (inactive)
- GI50 [10]: > 100 µM (inactive)
- GI50 [11]: > 100 µM (inactive)
- GI50 [12]: > 100 µM (inactive)
- GI50 [13]: > 100 µM (inactive)
- GI50 [14]: > 100 µM (inactive)
- GI50 [15]: > 100 µM (inactive)
- GI50 [16]: > 100 µM (inactive)
- GI50 [17]: > 100 µM (inactive)
- GI50 [18]: > 100 µM (inactive)
- GI50 [19]: > 100 µM (inactive)
- GI50 [20]: > 100 µM (inactive)
- GI50 [21]: > 100 µM (inactive)
- GI50 [22]: > 100 µM (inactive)
- GI50 [23]: > 100 µM (inactive)
- GI50 [24]: > 100 µM (inactive)
- GI50 [25]: 0.513 µM (active)
- GI50 [26]: > 100 µM (inactive)
- GI50 [27]: > 100 µM (inactive)
- GI50 [28]: > 100 µM (inactive)
- GI50 [29]: > 100 µM (inactive)
- GI50 [30]: > 100 µM (inactive)
- GI50 [31]: > 100 µM (inactive)
- GI50 [32]: > 100 µM (inactive)
- GI50 [33]: > 100 µM (inactive)
- GI50 [34]: > 100 µM (inactive)
- GI50 [35]: > 100 µM (inactive)
- GI50 [36]: > 100 µM (inactive)
- GI50 [37]: > 100 µM (inactive)
- GI50 [38]: > 100 µM (inactive)
- GI50 [39]: > 100 µM (inactive)
- GI50 [40]: > 100 µM (inactive)
- GI50 [41]: > 100 µM (inactive)
- GI50 [42]: > 100 µM (inactive)
- GI50 [43]: > 100 µM (inactive)
- GI50 [44]: > 100 µM (inactive)
- GI50 [45]: > 100 µM
- GI50 [46]: > 100 µM (inactive)
- GI50 [47]: > 100 µM (inactive)
- GI50 [48]: > 100 µM (inactive)
- GI50 [49]: > 100 µM (inactive)
- GI50 [50]: > 100 µM (inactive)
- GI50 [51]: > 100 µM (inactive)
- GI50 [52]: > 100 µM (inactive)
- GI50 [53]: > 100 µM (inactive)
- GI50 [54]: > 100 µM (inactive)
- GI50 [55]: > 100 µM (inactive)
- GI50 [56]: > 100 µM (inactive)
- GI50 [57]: > 100 µM (inactive)

Compound: Cc1cccc(C)c1Nc1nc(C)c(C(=O)CC(=O)C(=O)Nc2c(C(C)C)cccc2C(C)C)s1
- GI50 [1]: > 100 µM (inactive)
- GI50 [2]: 24.7 µM (inactive)
- GI50 [3]: > 100 µM (inactive)
- GI50 [4]: 78.3 µM (inactive)
- GI50 [5]: > 100 µM (inactive)
- GI50 [6]: > 100 µM (inactive)
- GI50 [8]: > 100 µM (inactive)
- GI50 [10]: 58.5 µM (inactive)
- GI50 [11]: 72.6 µM (inactive)
- GI50 [12]: > 100 µM (inactive)
- GI50 [13]: 43.8 µM (inactive)
- GI50 [14]: > 100 µM (inactive)
- GI50 [15]: > 100 µM (inactive)
- GI50 [16]: > 100 µM (inactive)
- GI50 [17]: > 100 µM (inactive)
- GI50 [18]: > 100 µM (inactive)
- GI50 [19]: 43.4 µM (inactive)
- GI50 [20]: > 100 µM (inactive)
- GI50 [21]: > 100 µM (inactive)
- GI50 [22]: > 100 µM (inactive)
- GI50 [23]: > 100 µM (inactive)
- GI50 [24]: 73.8 µM (inactive)
- GI50 [25]: 89.7 µM (inactive)
- GI50 [26]: > 100 µM (inactive)
- GI50 [27]: > 100 µM (inactive)
- GI50 [28]: > 100 µM (inactive)
- GI50 [29]: 56.8 µM (inactive)
- GI50 [30]: > 100 µM (inactive)
- GI50 [31]: > 100 µM (inactive)
- GI50 [32]: > 100 µM (inactive)
- GI50 [33]: > 100 µM (inactive)
- GI50 [34]: > 100 µM (inactive)
- GI50 [35]: 39.4 µM (inactive)
- GI50 [36]: > 100 µM (inactive)
- GI50 [37]: > 100 µM (inactive)
- GI50 [38]: > 100 µM (inactive)
- GI50 [39]: > 100 µM (inactive)
- GI50 [40]: > 100 µM (inactive)
- GI50 [58]: > 100 µM (inactive)
- GI50 [41]: 72.9 µM (inactive)
- GI50 [42]: > 100 µM (inactive)
- GI50 [43]: > 100 µM (inactive)
- GI50 [45]: > 100 µM
- GI50 [46]: > 100 µM (inactive)
- GI50 [47]: > 100 µM (inactive)
- GI50 [48]: > 100 µM (inactive)
- GI50 [49]: > 100 µM (inactive)
- GI50 [50]: > 100 µM (inactive)
- GI50 [51]: > 100 µM (inactive)
- GI50 [52]: > 100 µM (inactive)
- GI50 [53]: 69.3 µM (inactive)
- GI50 [54]: > 100 µM (inactive)
- GI50 [55]: > 100 µM (inactive)
- GI50 [56]: > 100 µM (inactive)
- GI50 [57]: > 100 µM (inactive)

Compound: CCOC(=O)C1=NN(c2ccc(C)cc2)C2=CC(C)=NN(C)C(=S)N21
- GI50 [1]: 31.1 µM (inactive)
- GI50 [2]: > 100 µM (inactive)
- GI50 [3]: > 100 µM (inactive)
- GI50 [4]: > 100 µM (inactive)
- GI50 [5]: 38.5 µM (inactive)
- GI50 [6]: > 100 µM (inactive)
- GI50 [7]: 23.1 µM (inactive)
- GI50 [8]: 26.9 µM (inactive)
- GI50 [9]: > 100 µM (inactive)
- GI50 [10]: > 100 µM (inactive)
- GI50 [11]: 60 µM (inactive)
- GI50 [12]: > 100 µM (inactive)
- GI50 [13]: 12.6 µM (inactive)
- GI50 [14]: 36.1 µM (inactive)
- GI50 [15]: > 100 µM (inactive)
- GI50 [16]: 82.4 µM (inactive)
- GI50 [17]: > 100 µM (inactive)
- GI50 [18]: 31.9 µM (inactive)
- GI50 [19]: > 10 µM (inactive)
- GI50 [20]: 81.1 µM (inactive)
- GI50 [21]: 43.5 µM (inactive)
- GI50 [23]: > 10 µM (inactive)
- GI50 [24]: > 100 µM (inactive)
- GI50 [25]: 70.3 µM (inactive)
- GI50 [26]: > 100 µM (inactive)
- GI50 [27]: 30.1 µM (inactive)
- GI50 [28]: > 100 µM (inactive)
- GI50 [29]: > 100 µM (inactive)
- GI50 [31]: > 100 µM (inactive)
- GI50 [32]: > 100 µM (inactive)
- GI50 [33]: > 100 µM (inactive)
- GI50 [34]: > 100 µM (inactive)
- GI50 [35]: > 100 µM (inactive)
- GI50 [36]: > 100 µM (inactive)
- GI50 [37]: > 100 µM (inactive)
- GI50 [38]: 85.5 µM (inactive)
- GI50 [39]: > 100 µM (inactive)
- GI50 [40]: > 100 µM (inactive)
- GI50 [58]: 12.2 µM (inactive)
- GI50 [41]: > 100 µM (inactive)
- GI50 [42]: 42.9 µM (inactive)
- GI50 [43]: 64 µM (inactive)
- GI50 [45]: > 100 µM
- GI50 [46]: > 100 µM (inactive)
- GI50 [47]: 26.4 µM (inactive)
- GI50 [49]: > 100 µM (inactive)
- GI50 [50]: > 100 µM (inactive)
- GI50 [51]: 88.5 µM (inactive)
- GI50 [52]: > 100 µM (inactive)
- GI50 [53]: > 100 µM (inactive)
- GI50 [54]: 70.6 µM (inactive)
- GI50 [55]: 48.5 µM (inactive)
- GI50 [56]: 54.2 µM (inactive)
- GI50 [57]: 24.4 µM (inactive)
